From patent US11090304B2 (Amgen Inc., priority 2018, dated 2021)
pIC50: −log10 of the molar value. Like-named read-outs stand apart in the source and are kept apart here.

Assays:
[1] = system: Phosphorylation of ERK1/2 in MIA PaCa-2 cells; assay: Phospho-ERK1/2 MSD assay in MIA PaCa-2 cells; format: cell-based
Experimental: For compounds in Table 89, the following assay conditions were employed:
Phospho-ERK1/2 MSD Assay:
Sixteen hours prior to compound treatment, MIA PaCa-2 or A549 cells were seeded in 96-well cell culture plates at a density of 25,000 cells/well and incubated at 37° C., 5% CO2. A compound dose-response titration was diluted in growth media, added to appropriate wells of a cell culture plate, and then incubated at 37° C., 5% CO2 for 2 or 4 hours (see Table 15). Following compound treatment, cells were stimulated with 10 ng/mL EGF (Roche 11376454001) for 10 min, washed with ice-cold Dulbecco's phosphate-buffered saline, no Ca^2+ or Mg^2+ (ThermoFisher Scientific 14190144), and then lysed in RIPA buffer (50 mM Tris-HCl pH 7.5, 1% Igepal, 0.5% sodium deoxycholate, 150 mM NaCl, and 0.5% sodium dodecyl sulfate) containing protease inhibitors (Roche 4693132001) and phosphatase inhibitors (Roche 4906837001). Phosphorylation of ERK1/2 in compound-treated lysates was assayed using Phospho-ERK1/2 Whole Cell Lysate kits (Meso Scale Discovery K151DWD) according to the manufacturer's protocol. Assay plates were read on a Meso Scale Discovery Sector Imager 6000, and data were analyzed using a 4-parameter logistic model to calculate IC50 values.

[2] = molecular target: GDP-bound KRAS protein (aa 1-169), containing both G12C and C118A amino acid substitutions (Homo sapiens, UniProt P01116, C118A/G12C); assay: Coupled nucleotide exchange assay (SOS-mediated, AlphaScreen); format: biochemical; settings: 5 min compound pre-incubation
[3] = Homo sapiens, MIA PaCa-2, 2 h, read-out: p-ERK IC50 (2 h; MIA PaCa-2), 2 h compound treatment
[4] = read-out: p-ERK IC50 (2 h; MIA PaCa-2), 2 h compound treatment

Sequence of GDP-bound KRAS protein (aa 1-169), containing both G12C and C118A amino acid substitutions (P01116 1-169 isoform P01116-2 G12C/C118A): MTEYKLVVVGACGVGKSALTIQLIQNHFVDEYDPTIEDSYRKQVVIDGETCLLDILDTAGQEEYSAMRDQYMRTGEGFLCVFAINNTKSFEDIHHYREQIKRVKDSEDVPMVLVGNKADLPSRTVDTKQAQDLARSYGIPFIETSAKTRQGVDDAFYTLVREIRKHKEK

SMILES	pIC50 [1, 3]	Coupled exchange IC50 (5 min) [2]	other results
C=CC(=O)N1CCN(c2nc(=O)n(-c3ccccc3C(C)(C)C)c3nc(-c4c(O)cccc4F)c(F)cc23)[C@@H](C)C1 [Example 58-1, 6-Fluoro-7-(2-fluoro-6-hydroxyphenyl)-1-(2-(2-methyl-2-propanyl)phenyl)-4-((2S)-2-methyl-4-(2-propenoyl)-1-piperazinyl)pyrido[2,3-d]pyrimidin-2(1H)-one]	6.16	0.661 | nda μM	–
C=CC(=O)N1CCN(c2nc(=O)n(-c3ccccc3C3(C)CC3)c3nc(-c4c(O)cccc4F)c(Cl)cc23)[C@@H](C)C1 (single isomer, unassigned) [Example 54-97-2]	–	0.044 | nda μM	pIC50 [1, 4]: 6.85
C=CC(=O)N1CCN(c2nc(=O)n(-c3c(CC)ncnc3CC)c3nc(-c4c(O)cccc4F)c(F)cc23)[C@@H](C)C1 [Example 58-23, 1-(4,6-diethyl-5-pyrimidinyl)-6-fluoro-7-(2-fluoro-6-hydroxyphenyl)-4-((2S)-2-methyl-4-(2-propenoyl)-1-piperazinyl)pyrido[2,3-d]pyrimidin-2(1H)-one]	6.05	0.732 | nda μM	–
C=CC(=O)N1CCN(c2nc(=O)n(-c3c(C(N)=O)cccc3C(C)C)c3nc(-c4ccccc4F)c(Cl)cc23)[C@@H](C)C1 (single isomer, unassigned) [Example 142-2]	7.54	0.029 | nda μM	–
C=CC(=O)N1CCN(c2nc(=O)n(-c3ccccc3C(C)C)c3nc(-c4ccccc4Cl)c(F)cc23)[C@@H](C)C1 (single isomer, unassigned) [Example 57-8-2]	6.78	0.514 | nda μM	–
C=CC(=O)N1CCN(c2nc(=O)n(-c3ccccc3C(C)C)c3nc(-c4ccccc4OC(F)F)c(Cl)cc23)[C@@H](C)C1 [Example 56-10, 6-chloro-7-(2-(difluoromethoxy)phenyl)-4-((2S)-2-methyl-4-(2-propenoyl)-1-piperazinyl)-1-(2-(2-propanyl)phenyl)pyrido[2,3-d]pyrimidin-2(1H)-one]	6.59	0.332 | nda μM	–
C=CC(=O)N1CCN(c2nc(=O)n(-c3ccccc3C(C)C)c3nc(-c4c(O)cccc4Cl)c(Cl)cc23)[C@@H](C)C1 [Example 54-79, 6-chloro-7-(2-chloro-6-hydroxy-phenyl)-4-((2S)-2-methyl-4-(2-propenoyl)-1-piperazinyl)-1-(2-(2-propanyl)phenyl)pyrido [2,3-d]pyrimidin-2(1H)-one]	7.01	0.072 | nda μM	–
C=CC(=O)N1CCN(c2nc(=O)n(-c3ncsc3C(C)C)c3nc(-c4ccccc4F)c(Cl)cc23)[C@@H](C)C1 [Example 55-19, 6-chloro-7-(2-fluorophenyl)-4-((2S)-2-methyl-4-(2-propenoyl)-1-piperazinyl)-1-(5-(2-propanyl)-1,3-thiazol-4-yl)pyrido[2,3-d]pyrimidin-2(1H)-one]	6.72	0.22 | nda μM	–
C=CC(=O)N1C[C@H](C)N(c2nc(=O)n(-c3c(C)ccnc3C(C)C)c3nc(-c4c(N)cccc4F)c(Cl)cc23)[C@@H](C)C1 (atropisomer, axis not shown; (M)) [Example 73-15, (M)-7-(2-amino-6-fluorophenyl)-6-chloro-4-((2S,6S)-2,6-dimethyl-4-(2-propenoyl)-1-piperazinyl)-1-(4-methyl-2-(2-propanyl)-3-pyridinyl)pyrido[2,3-d]pyrimidin-2(1H)-one]	8.40	0.015 | nda μM	–
C=CC(=O)N1CCN(c2nc(=O)n(C3CCC34CCCC4)c3nc(-c4c(O)cccc4F)c(Cl)cc23)[C@@H](C)C1 (stereo partly drawn) [Example 60-9, 6-chloro-7-(2-fluoro-6-hydroxyphenyl)-4-((2S)-2-methyl-4-(2-propenoyl)-1-piperazinyl)-1-(spiro[3.4]octan-1-yl)pyrido[2,3-d]pyrimidin-2(1H)-one]	5.80	0.484 | nda μM	–
C=CC(=O)N1CCN(c2nc(=O)n(-c3ccccc3C(C)C)c3nc(-c4ccc(F)cc4F)c(Cl)cc23)[C@@H](C)C1 (single isomer, unassigned) [Example 54-85-2]	–	0.078 | nda μM	pIC50 [1, 4]: 7.10
C=CC(=O)N1CCN(c2nc(=O)n(-c3c(CC)ncnc3CC)c3nc(-c4c(O)cccc4F)c(Cl)cc23)[C@@H](C)C1 [Example 55-31, 6-chloro-1-(4,6-diethyl-5-pyrimidinyl)-7-(2-fluoro-6-hydroxyphenyl)-4-((2S)-2-methyl-4-(2-propenoyl)-1-piperazinyl)pyrido[2,3-d]pyrimidin-2(1H)-one]	7.10	0.098 | nda μM	–
C=CC(=O)N1CCN(c2nc(=O)n(-c3c(C)ccnc3C(C)C)c3nc(-c4nc(N)ccc4Cl)c(F)cc23)C(C)C1 (atropisomer, axis not shown; (M)) [Example 65-1, (M)-7-(6-Amino-3-chloro-2-pyridinyl)-6-fluoro-1-(4-methyl-2-(2-propanyl)-3-pyridinyl)-4-((2S)-2-methyl-4-(2-propenoyl)-1-piperazinyl)pyrido[2,3-d]pyrimidin-2(1H)-one]	5.82	0.606 | nda μM	–
C=CC(=O)N1CCN(c2nc(=O)n(-c3c(C)ccnc3C(C)C)c3nc(-c4cc(F)ccc4F)c(Cl)cc23)[C@@H](C)C1 (atropisomer, axis not shown; (M)) [Example 73-2, (M)-6-chloro-7-(2,5-difluorophenyl)-1-(4-methyl-2-(2-propanyl)-3-pyridinyl)-4-((2S)-2-methyl-4-(2-propenoyl)-1-piperazinyl)pyrido[2,3-d]pyrimidin-2(1H)-one]	7.00	0.067 | nda μM	–
C=CC(=O)N1CCN(c2nc(=O)n(CC3(C(F)(F)F)CC3)c3nc(-c4ccccc4F)c(Cl)cc23)CC1 [Example 60-4, 6-chloro-7-(2-fluorophenyl)-4-(4-(2-propenoyl)-1-piperazinyl)-1-((1-(trifluoromethyl)cyclopropyl)methyl)pyrido[2,3-d]pyrimidin-2(1H)-one]	–	–	pIC50 ([1]; Homo sapiens, MIA PaCa-2, 4 h, read-out: p-ERK IC50 (4 h; MIA PaCa-2), 4 h compound treatment): 5.65
C=CC(=O)N1CCN(c2nc(CO)cc3nc(-c4ccccc4F)c(Cl)cc23)[C@@H](C)C1 [Example 150, 1-((3S)-4-(3-Chloro-2-(2-fluorophenyl)-7-(hydroxymethyl)-1,6-naphthyridin-5-yl)-3-methyl-1-piperazinyl)-2-propen-1-one]	5.48	–	–
C=CC(=O)N1CCN(c2nc(=O)n(-c3c(C)cccc3C(C)C)c3nc(-c4c(O)cccc4F)c(F)cc23)[C@@H](C)C1 [Example 58-18, 6-fluoro-7-(2-fluoro-6-hydroxyphenyl)-1-(2-methyl-6-(2-propanyl)phenyl)-4-((2S)-2-methyl-4-(2-propenoyl)-1-piperazinyl)pyrido[2,3-d]pyrimidin-2(1H)-one]	6.57	–	–
C=CC(=O)N1CCN(c2nc(=O)n(-c3c(C(C)C)ccnc3C)c3nc(-c4c(O)cccc4F)c(Cl)cc23)[C@@H](C)C1 (single isomer, unassigned) [Example 54-17-1]	–	–	pIC50 [1, 4]: 6.38
C=CC(=O)N1CCN(c2nc(=O)n(-c3c(C)cnn3C(C)C)c3nc(-c4c(O)cccc4F)c(Cl)cc23)[C@@H](C)C1 (single isomer, unassigned) [Example 54-71-2]	–	–	pIC50 [1, 4]: 6.75
C=CC(=O)N1CCN(c2nc(=O)n(-c3c(C(C)C)ncnc3C(C)C)c3nc(-c4c(O)cccc4F)c(Cl)cc23)[C@@H](C)C1 [Example 55-2]	7.60	–	–
C=CC(=O)N1CCN(c2nc(=O)n(-c3c(C)ncnc3C(C)C)c3nc(-c4c(O)cccc4F)c(F)cc23)[C@@H](C)C1 [Example 58-11, 6-fluoro-7-(2-fluoro-6-hydroxyphenyl)-1-(4-methyl-6-(2-propanyl)-5-pyrimidinyl)-4-((2S)-2-methyl-4-(2-propenoyl)-1-piperazinyl)pyrido[2,3-d]pyrimidin-2(1H)-one]	6.13	–	–
C=CC(=O)N1CCN(c2nc(=O)n(-c3c(C)cccc3CC)c3nc(-c4c(O)cccc4F)c(Cl)cc23)[C@@H](C)C1 (single isomer, unassigned) [Example 55-8-2]	–	–	pIC50 [1, 4]: 6.80
C=CC(=O)N1CCN(c2nc(=O)n(-c3ccccc3C(C)C)c3nc(N4CCCC4)c(Cl)cc23)[C@@H](C)C1 [Example 69-3, 6-chloro-4-((2S)-2-methyl-4-(2-propenoyl)-1-piperazinyl)-1-(2-(2-propanyl)phenyl)-7-(1-pyrrolidinyl)pyrido[2,3-d]pyrimidin-2(1H)-one]	5.77	–	–
C=CC(=O)N1CCN(c2nc(=O)n(-c3ccccc3C(C)C)c3nc(-c4c(O)cccc4F)c(Cl)cc23)CC1 (single isomer, unassigned) [Example 60-24-2, (P)-6-chloro-7-(2-fluoro-6-hydroxyphenyl)-1-(2-(2-propanyl)phenyl)-4-(4-(2-propenoyl)-1-piperazinyl)pyrido[2,3-d]pyrimidin-2(1H)-one]	–	–	pIC50 [1, 4]: 6.15; pIC50 ([1]; read-out: p-ERK IC50 (4 h; MIA PaCa-2), 4 h compound treatment): 6.01
